Reference: patent publication US20170128428A1 (priority 2014, published 2017)

Experiments:
[1] = tested on: chemically induced neuropathic pain; settings: Kautio et al. 2008; Mitchell et al. 2006; cited from earlier work
[2] = tested on: oxaliplatin-induced neuropathy; settings: chronic oxaliplatin, study D0 to D28; group O; FIG. 3
Procedure: (§1) The animals in the control group received an injection of 5% glucose by the same route, at the same frequency and the same volume.
(§2) These tablets were reduced to a fine powder, and placed in suspension in water containing 0.5% carboxymethylcellulose (Sigma Aldrich, France) in order to obtain a solution at 4 mg/ml. […] The animals in the control group simply received an administration of 0.5% carboxymethylcellulose by the same route, at the same volume and the same frequency.
The Von Frey electronic apparatus (Chaplan et al., 1994) includes a portable sleeve made up of an elastic tip connected to a force sensor. The rats are placed in Plexiglas boxes, arranged on a raised grate. After a habituation period of the rats, the tip is applied perpendicularly to the center of the 5 plantar pads of each of rear paw. […] The intensity of the stimulus, the maximum applied pressure (expressed in grams) is recorded by the device upon withdrawal of the paw.
(§3) The trials were conducted over a period of 3 hours, on all 4 groups of rats. The time t0 corresponds to the moment of the injection.

[3] = tested on: oxaliplatin-induced neuropathy; settings: chronic oxaliplatin, study D0 to D28; group O; FIG. 4
Procedure: as §1, §2
The rats' tails are submerged in a cold water bath (10° C.). The immersion is maintained until the animal withdraws its tail. The latency of the withdrawal is clocked. Each measurement is done in triplicate.
as §3

[4] = tested on: oxaliplatin-induced neuropathy; settings: chronic oxaliplatin, day 31; group O; FIG. 5
Procedure: as §1, §2
This test takes place in an arena equipped with a camera in which two animals are placed in one another's presence for 10 minutes. The purpose of this test is to measure the interaction time between the animals. The two studied animals are always part of the same experimental condition group to prevent the behavior of one rat from influencing the other. The rats interact with one another by sniffing, grooming, chasing, etc. An increase in interactions indicates a non-anxious state of the rat, while a decrease and tendency toward prostration indicates an anxious state of the animal. At the beginning of the experiment, the animals are placed in opposite corners of the arena and the handler leaves the room. The arena is cleaned between two experiments to prevent the odors from the previous rats from disrupting the results.
A dose of 5 mg/kg was administered to the animals in groups D and O-D 30 minutes before the test.

[5] = Park et al. 2011; treatment using oxaliplatin and/or cisplatin; cited from earlier work

| Structure (SMILES) | relief in patients treated with oxaliplatin [1] | sensitivity to mechanical stimulation compared to Sham group [2] | sensitivity to cold stimulation compared to Sham group [3] | anxiety level (social interaction time) vs Sham group [4] | affected patients in whom the neuropathy becomes persistent [5] |
| --- | --- | --- | --- | --- | --- |
| NCC1(CC(=O)O)CCCCC1 [gabapentin] | have not provided any relief | – | – | – | – |
| CN(C)CCC=C1c2ccccc2CCc2ccccc21 [amitriptyline] | have not provided any relief | – | – | – | – |
| O=C1[O][Pt-2]2([NH2+]C3CCCC[C@H]3[NH2+]2)[O]C1=O (stereo in doubt) [oxaliplatin, cis-[(1R, 2R)-1,2-cyclohexanediamine-N, N′] [oxaloto (2)-O, O′] platinum] | – | increased sensitivity to mechanical stimulation | increased sensitivity | significantly more anxious than the animals in the Sham group | approximately 80% |
